This data set in a line: Increase in solubility of Compound A in dichloromethane/methanol by addition of metal compound. It is filed as physicochemical. Particulars: solvent dichloromethane/methanol=7/3. The source says: Increase in solubility of poorly water-soluble nonpeptidic physiologically active compound by addition of metal compound
An amount of a solvent (dichloromethane/methanol=7/3) which can dissolve 0.1 g of 2-ethoxy-1-[[2′-(1H-tetrazol-5-yl)biphenyl-4-yl]methyl]benzimidazole-7-carboxylic acid (hereinafter, abbreviated as Compound A) is shown in Table 1.

As to `CCOc1nc2cccc(C(=O)O)c2n1Cc1ccc(-c2ccccc2-c2nnn[nH]2)cc1` [Compound A, 2-ethoxy-1-[[2′-(1H-tetrazol-5-yl)biphenyl-4-yl]methyl]benzimidazole-7-carboxylic acid], the “Amount of solvent which can dissolve 0.1 g of Compound A” value worked out at 0.5 mL (magnesium acetate tetrahydrate 48.7 mg added), 3 mL (no metal compound added) and 0.5 mL (zinc acetate dihydrate 49.8 mg added).

The values above are taken from US20040121008A1, “Process for producing sustained release preparation” (priority 2001, published 2004).
